From US12564578B2, “Collagen P4H1 inhibitor and its use” (University of Kentucky Research Foundation, priority 2019, dated 2026)
“Also recorded” adds a separate entry of the source. Read-outs that look alike come from different tables or passages of the source.

Key:
human C-P4H1 = target: T1, human C-P4H1 (Homo sapiens, UniProt P13674); experiment: Human C-P4H1 activity measured with Succinate-Glo Hydroxylase assay (also high-throughput screening); assay type: biochemical; conditions: for inhibition of C-P4H1 activity (luminescence): different concentrations, 200 nM C-P4H1
T1 construct: made in house; host or cells: HEK-293FT
Method: Human CP4H1 activity Assays were carried out at room temperature in 10 mM HEPES buffer containing 10 mM NaCl, pH 7.4. […] FeSO4 was prepared freshly in 10 mM HCl prior to each time use. Following 1 hour reaction, the reaction solution was subjected to Hydroxyproline Colorimetric Assay and Succinate-Glo™ Hydroxylase assay respectively.
(§1) Succinate-Glo™ Hydroxylase assay was ran following the protocol of Succinate-Glo™ JmjC Demethylase/Hydroxylase Assay (Promega, V7991). Briefly, following the human CP4H1 assay, 10 μL Succinate Detection Reagent I was added, including the enzymes 3-oxoacid CoA-transferase (SCOT) and succinyl CoA ligase (SCS), and acetoacetyl-CoA. See, TM488 Technical Manual and U.S. Pat. No. 9,677,117 for “Bioluminescent Succinate Detection Assay,” issued Jun. 13, 2017, assigned to Promega Corporation. Mix assay plate with a plate shaker for 30 seconds, and incubate at room temperature for 60 minutes. Add 20 μl of Succinate Detection Reagent II, including the enzyme luciferase, to each well of the assay plate to generate light from the ATP. See, Id. Mix assay plate with a plate shaker for 30 seconds, and incubate at room temperature for 10 minutes. Measure the luminescence with a plate-reading luminometer (BioTek).
[…] Then mix with peptide substrate (GlyProProGly(SEQ ID NO:1)OEt), 500 μM), FeSO4 (50 μM), catalase (0.1 mg/mL), ascorbate (2 mM), and α-ketoglutarate (100 μM) to react 1 hour at room temperature. The reaction volume was usually 10 μL. After the reaction, Succinate-Glo™ Hydroxylase assay was conducted in the corresponding 96-well or 384-well plate. 50 μM DHB was set as a positive control in each plate.

[1] = Succinate-Glo Hydroxylase assay in the absence of C-P4H1 (counter test); assay type: biochemical; conditions: no C-P4H1 in the reaction
Method: as §1
To further evaluate reliability of the Succinate-Glo™ assay, varied concentration of peptide substrate GPPG (FIG. 3A) and hydroxyl donor α-KG (FIG. 3B) were tested in the hydroxylation reaction, respectively. Increased concentration of GPPG and α-KG induced luminescence assay in a dose dependent manner. DHB has been identified as a C-P4Hs' inhibitor^35. To determine whether this assay can evaluate c-P4H1 inhibitor's activity, C-P4H1 was incubated with different concentration of DHB for 30 min at 4° C., and then the hydroxylation reaction and the bioluminescence-based assay were performed. […] The IC50 was detected at around 20 μM, which is much lower than the IC50 value of 0.1 mM reported in the previous research with the collagen hydroxylation assay in the chicken tendon cells (doi: 10.1042/bj2610127); this is probably due to the sensitivity difference between two methods. In the absence of C-P4H1, DHB had little effect on the Succinate-Glo™ assay, indicating the inhibitory effect is specific on the prolyl hydroxylation reaction (FIG. 3D).

[2] = tested on: collagen hydroxylation in chicken tendon cells; conditions: collagen hydroxylation assay, doi: 10.1042/bj2610127, read-out: IC50 reported in previous research; cited from earlier work
HS-578T cells [3] = experiment: Western blot of type I collagen in conditioned medium of treated cells; assay type: cell-based; conditions: 48 hours, 10 μM and 20 μM
Method: Chemical treated Hs578 cells were lysed in 2% sodium dodecyl sulfate (SDS) in phosphate-buffered saline (PBS) buffer containing phosphatase and protease inhibitor cocktails (EMD Millipore, 539131). Protein concentration was measured using Pierce™ BCA Protein Assay Kit (Thermo Fisher Scientific, 23227). Equal amounts of protein lysates or cell conditional medium (normalized to cell numbers) were subjected to SDS gel electrophoresis, immunoblotted with primary antibodies (Anti-Collagen I antibody, ab34710; Anti-tubulin, Cell Signaling 2148)) and DyLight 680/800-conjugated secondary antibodies (DyLight 680-conjugated goat anti-rabbit IgG secondary antibody Thermo Fisher Scientific, 35569; DyLight 800-conjugated goat anti-mouse IgG secondary antibody Thermo Fisher Scientific, SA5-35521).
To determine whether the identified potential inhibitors suppress the C-P4H1 activity in tissue culture, HS-578T cells were treated with Silodosin or Ticlopidine for 48 hours. Since collagen maturation and secretion was regulated by the C-P4H1, conditioned media were collected from control and Silodosin- or Ticlopidine-treated cells for western blot analysis.

MDA-MB-231 cells = experiment: 3D culture assay, invasive branching / invasive growth; assay type: cell-based; conditions: MDA-MB-231, 10 μM and 20 μM, 48 hours
Method: (§2) 3D laminin-rich extracellular matrix (3D lrECM) on-top cultures were prepared by trypsinization of cells from tissue culture plastic^25. Growth Factor Reduced BD Matrigel™ was plated on the bottom of the cell culture dish. MDA-MB-231 and HS-578 cells were seeded on the top of the matrigel layer, and additional medium containing 10% Matrigel was added on the top.
(§3) All the 3D culture assay images were acquired by Nikon microscope and were quantified with the Nikon analysis software. Results are reported as mean±S.E.M; the significance of difference was assessed by independent Student's t-test. P<0.05 represents statistical significance and P<0.01 represents sufficiently statistical significance. All reported P values were 2-tailed.
(§4) It has been shown that silence of P4HAs suppress invasive tumor growth in three-dimensional (3D) tissue culture model^19,25. 3D culture model has been widely used to evaluate drug effect^38. To further evaluate the inhibitory ability of these chemicals in tumor progression, triple-negative breast cancer cell lines, MDA-MB-231 cells and HS-578T cells were treated with Silodosin and Ticlopidine in 3D culture^39. […] Invasive branching structure of cancer cells in 3D culture is associated with tumor invasion and aggressive phenotypes^15, 19, 25. […]

HS-578T cells [4] = experiment: 3D culture assay, invasive branching; assay type: cell-based; conditions: 10 μM and 20 μM, 24 hours
Method: as §2, §3, §4

T1 sequence (P13674 18-534): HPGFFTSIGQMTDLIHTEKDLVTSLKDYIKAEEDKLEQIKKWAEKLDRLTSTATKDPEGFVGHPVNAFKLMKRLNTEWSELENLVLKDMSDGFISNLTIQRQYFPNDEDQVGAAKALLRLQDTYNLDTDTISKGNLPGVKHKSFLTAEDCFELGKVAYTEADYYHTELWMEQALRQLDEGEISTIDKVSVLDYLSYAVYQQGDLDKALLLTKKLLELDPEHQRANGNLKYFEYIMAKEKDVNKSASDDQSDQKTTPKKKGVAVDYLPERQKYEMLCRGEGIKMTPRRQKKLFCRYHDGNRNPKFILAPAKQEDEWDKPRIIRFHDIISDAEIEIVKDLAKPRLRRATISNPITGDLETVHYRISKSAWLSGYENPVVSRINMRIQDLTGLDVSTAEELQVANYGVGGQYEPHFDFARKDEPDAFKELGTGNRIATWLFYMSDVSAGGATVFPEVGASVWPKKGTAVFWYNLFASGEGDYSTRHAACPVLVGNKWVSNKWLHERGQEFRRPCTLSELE
T1 sequence (P07237 18-508 partner): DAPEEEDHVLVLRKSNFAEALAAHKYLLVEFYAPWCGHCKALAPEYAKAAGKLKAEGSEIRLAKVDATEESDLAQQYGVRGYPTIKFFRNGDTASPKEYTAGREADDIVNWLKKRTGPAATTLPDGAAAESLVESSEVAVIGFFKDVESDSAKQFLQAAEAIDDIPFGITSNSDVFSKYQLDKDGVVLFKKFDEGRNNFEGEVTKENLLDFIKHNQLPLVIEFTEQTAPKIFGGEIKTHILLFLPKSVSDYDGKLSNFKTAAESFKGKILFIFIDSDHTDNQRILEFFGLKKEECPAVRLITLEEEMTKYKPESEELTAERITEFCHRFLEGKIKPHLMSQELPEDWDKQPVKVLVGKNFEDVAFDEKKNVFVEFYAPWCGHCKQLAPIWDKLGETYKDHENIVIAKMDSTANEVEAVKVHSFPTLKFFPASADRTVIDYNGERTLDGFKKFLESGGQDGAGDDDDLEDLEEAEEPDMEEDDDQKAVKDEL

SMILES | IC50 (human C-P4H1; 0.1 μM WT C-P4HA1 (FIG. 3E), read-out: IC50 of wild type C-P4H1 inhibition) [µM] | IC50 (human C-P4H1; C-P4H1 200 nM, preincubated 30 min at 4° C. (FIG. 3C), read-out: IC50 of C-P4H1 inhibition) [µM] | inhibition of C-P4H1 activity (luminescence) (human C-P4H1) | effect on the luminescence assay in the absence of C-P4H1 [1] | IC50 [2] [µM] | kinetic property of C-P4H1 inhibition (human C-P4H1; dose curves, FIG. 4D and 4F) | effect on the luminescence assay in the absence of C-P4H1 ([1]; listed as Silodocin) | protein levels of type I collagen in the conditioned media (HS-578T cells [3]) | invasive branching structures in 3D culture (MDA-MB-231 cells) | invasive branching structures in 3D culture (HS-578T cells [4])
CCOC(=O)c1ccc(O)c(O)c1 [DHB, ethyl-3,4-dihydroxybenzoic acid] | ~40 | ~20 | significantly reduced luminescence values | little effect; also recorded: did not inhibit | 100 |  |  |  |  | 
C[C@H](Cc1cc2c(c(C(N)=O)c1)N(CCCO)CC2)NCCOc1ccccc1OCC(F)(F)F [Silodosin] |  |  | inhibited C-P4H1 activity in a dose-dependent manner | little effect |  | faster kinetic property compared to ticlopidine | did not inhibit | reduced protein levels of type I collagen | significantly reduced invasive branching structures | significantly reduced invasive branching structures
